The record followed here is ChEMBL document CHEMBL1201862, “PubChem BioAssay data set” (2004).

SMILES strings stand for the structures.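 Grown in 96-well plates, cells were treated for 48 hours with each compound at five concentrations. Insufficient inhibition: endpoint recorded as highest concentration tested. Here, GI50 denotes the concentration required for 50% inhibition of growth.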 The source made the active and inactive calls. Rule as the data show it: active = GI50 up to about 1.1 µM and inactive = higher.

Common to all, as to assay: NCI tumour cell line growth inhibition, 48 h
Assay [1] deals with BT-549.
For assay [2], the system named is DMS-273.
The subject of assay [3] is HOP-18.
Assay [4] deals with KM-20L2.
The test system of assay [5] is LXFL 529.
Assay [6] has as its system M19-MEL.
Assay [7] deals with RXF 631.
The subject of assay [8] is SNB-78.
In assay [9] the test system is XF498.

Regarding `COc1cc(Nc2ccc3c(c2)CCC3)nc(OC)n1`, in [1], the GI50 was 33.3 µM (inactive).
Regarding `O/N=C1/C(=C/c2ccc(Br)cc2)CCCC1C(NO)c1ccc(Br)cc1` (centres undefined), the GI50 in assay [2] was 13.1 µM (inactive); in assay [3] it was 18.9 µM (inactive); in [4], 17.3 µM (inactive); in assay [5], 14.8 µM (inactive); in assay [6] it was 17 µM (inactive); in assay [7], 14.8 µM (inactive). Moreover, the GI50 in assay [8] is 13.4 µM (inactive).
As to `CCc1ccccc1-n1c2nc(=O)n(C)c(=O)c-2nc2ccccc21`, the GI50 in assay [2] is 8.71 µM (inactive); in [3] it was 11.9 µM (inactive); in assay [4] it was 4.08 µM (inactive); in [5] it was 11.1 µM (inactive); in assay [6], 1.85 µM (inactive); in assay [8], 16.9 µM (inactive). Also, the GI50 in [9] is 10.3 µM (inactive).
Regarding `O=C(/C=C/c1ccccc1)Oc1ccc(C(=O)/C=C/c2ccccc2)cc1`, the GI50 in assay [1] is 6.49 µM (inactive).
Same read-out and setting: the result for `CC(C)=CCC[C@@H](C)C1=C(O)C(=O)C(C)=C(Nc2ccccc2I)C1=O` reads 23.6 µM (inactive).
Regarding `Cc1ccc(C(=O)/C=C/c2ccccc2Cl)cc1`, the GI50 is 15.2 µM (inactive) in assay [2]; 26.8 µM (inactive) in assay [3]; 16.7 µM (inactive) in assay [4]; 15.3 µM (inactive) in assay [5]; 18.8 µM (inactive) in [6]; 21.7 µM (inactive) in [8].
As to `CCCCCC(C)C[C@H]1CO[C@H](c2ccc[nH]2)N[C@H]1C(=O)OC` (some centres undefined), the GI50 in assay [1] was > 100 µM (inactive).
Regarding `Nc1nc(NC2C=C(CO)C(O)C2O)c([N+](=O)[O-])c(=O)[nH]1` (centres undefined), the GI50 in assay [2], in assay [3], in assay [4], in [5], in [6] and in assay [8] was > 100 µM (inactive) each time. Also, the GI50 in assay [9] is > 100 µM (inactive).
Consider `CC1C(c2ccccc2O)c2cc3c(cc2OC1N1CCOCC1)OCO3` (centres undefined), for which the GI50 in assay [1] is 27.4 µM (inactive).
On to `O=C1NC(N2CCOCC2)=N/C1=C\c1ccc(Cl)cc1`, for which the GI50 in assay [1] was > 100 µM (inactive).
The same measure, in the same setting: the result for `Cc1oc2nc1C(=O)NCc1nc(cs1)C(=O)N[C@H](C(C)C)c1nc(cs1)C(=O)N[C@H]2C` reads > 100 µM (inactive); that for `O=c1c2ccccc2nc(-c2cccc([N+](=O)[O-])c2)n1O`, 12 µM (inactive).
Same read-out and setting: the figure for `NS(=O)(=O)c1nn2c(Br)c(-c3ccccc3)nc2s1` is 2.97 µM (inactive); for `Cc1nnc(-n2c(O)cc(=O)n(-c3ccccc3)c2=S)nc1/C=C/c1ccc(N(C)C)cc1` it is 20.9 µM (inactive).
For `COc1cc(C=O)c(-c2cc(OC)c(OC)cc2C=O)cc1OC`, the GI50 in assay [2], in assay [3], in [4], in assay [5], in [6] and in assay [8] was > 100 µM (inactive) each time.
For the compound `COc1cc(CNC2c3cc4c(cc3C(c3cc(OC)c(OC)c(OC)c3)[C@H]3C(=O)OCC23)OCO4)cc(OC)c1OC` (some centres undefined), the GI50 is 0.237 µM (active) in assay [2]; 55.5 µM (inactive) in [3]; 0.197 µM (active) in [4]; 0.356 µM (active) in assay [5]; 1.28 µM (inactive) in [6]; 0.364 µM (active) in assay [9].
Regarding `COC1C(=O)N(SC)C1c1ccccc1Cl` (centres undefined), in assay [1], the GI50 is 23.4 µM (inactive).
In the case of `CC(=O)NNc1nc(C)c(C(=O)/C=C/c2ccc(N(C)C)cc2)s1`, the GI50 in [2], in [3], in assay [4], in assay [7] and in [8] was > 100 µM (inactive) throughout.
Take `Cc1sc2nc(-c3ccc(Cl)c([N+](=O)[O-])c3)c(/C=N/NC(=N)N)n2c1C`: the GI50 in assay [1] is 1.7 µM (inactive).
Same read-out and setting: the result for `CN1C[C@@H]2CCCN2P1Oc1cccc2cccnc12` (some centres undefined) reads > 100 µM (inactive); that for `CC(C)(C)Cc1cc(O)ccc1O`, 93.3 µM (inactive); that for `O=C(Cc1cc(=O)oc2cc(O)ccc12)N/N=C/c1ccc(N(CCCl)CCCl)cc1`, 16.4 µM (inactive).
Take `CC1(C)CC(C2CC(C)(C)CC(C)(C)[C@H]2O)[C@@H](O)C(C)(C)C1` (some centres undefined): the GI50 in assay [2], in assay [4], in [5], in assay [6] and in assay [9] was > 100 µM (inactive) in each case.
Take `CN(C)CCc1c2c(nc3ccccc13)C(=O)c1cccnc1C2=O`: the GI50 in assay [1] is 0.268 µM (active).
Same read-out and setting: the figure for `CC(=O)CCNc1ccc(-c2cc(-c3ccc(N(C)C)cc3)nc3ccc4ccccc4c23)cc1` is 35.9 µM (inactive); for `NC1=NC(c2ccc(Cl)cc2)N(c2ccc(S(=O)(=O)Nc3ncccn3)cc2)C(N)=N1` (centres undefined) it is > 100 µM (inactive).
Same read-out and setting: the result for `Cc1ccc2[nH]c(=O)c(-c3cnc(O)nn3)c(O)c2c1` reads 80.2 µM (inactive).
For the compound `CC(=O)OCC1OC(n2c(=O)n(-c3ccccc3)c(=O)c3ccccc32)C(OC(C)=O)C(OC(C)=O)C1OC(C)=O` (centres undefined), the GI50 in assay [2], in assay [3], in [4], in assay [5], in assay [6] and in [7] was > 100 µM (inactive) each time. Further, the GI50 in assay [8] is > 100 µM (inactive).
Take `Nc1ccc2nc(-c3ccccn3)c(-c3ccccn3)nc2c1`: the GI50 in assay [1] was > 100 µM (inactive).
Regarding `O=C(O[C@H]1[C@@H]2C=CO[C@@H](OC3OC(CO)C(O)C(O)C3O)[C@@H]2[C@@]2(CO)O[C@@H]12)c1ccc(O)c(O)c1` (some centres undefined), the GI50 in assay [2] was > 100 µM (inactive); in [4], > 100 µM (inactive); in assay [5], > 100 µM (inactive); in [6], > 100 µM (inactive); in assay [8], > 100 µM (inactive); in assay [9], 41.5 µM (inactive).
`NC(Cc1ccccc1)C(=O)OCN1C(=O)C2C3C=CC(C2C1=O)C1C2C(=O)N(COC(=O)C(N)Cc4ccccc4)C(=O)C2C31` (centres undefined): the GI50 in assay [4] was 28.4 µM (inactive); in assay [5], 19.4 µM (inactive); in assay [9], 30.8 µM (inactive).
On to `NS(=O)(=O)c1ccc(/N=N/c2ccc(O)c(C(=O)O)c2)cc1` [SALAZOSULFAMIDE], for which the GI50 in assay [1] is > 100 µM (inactive).
The same measure, in the same setting: the result for `COC12CCCN1c1ccn(Cc3ccccc3)c(=O)c1C2=O` (centres undefined) reads > 100 µM (inactive); that for `COCCCN1C(=O)C2c3[nH]c4ccccc4c3C3CCC(C(C)(C)C)CC3C2C1=O` (centres undefined), 20.5 µM (inactive); that for `C=C(C)[C@H]1C2=CC(C(=O)OC)=C(C[C@H](C(=C)C)[C@@H](O)[C@@H](O)C3=C[C@H]1OC3=O)O2`, > 100 µM (inactive).
With `CC1CCN(C(C)C)P(=S)(Cc2ccccc2)O1` (centres undefined), the GI50 in [1] was 28.1 µM (inactive).
On to `O=c1c2ccccc2[nH]c2ccc3c(Cl)n[nH]c3c12`, for which the GI50 in assay [2] is 40.3 µM (inactive); in [3], 33.2 µM (inactive); in assay [4], 51.9 µM (inactive); in assay [5] it was 51.6 µM (inactive); in assay [6], 42.6 µM (inactive); in [7], 37.3 µM (inactive). For the same compound, the GI50 in assay [8] is 55.3 µM (inactive).
For `COc1cc(/C=C/C=C2\CCC/C(=C\C=C\c3ccc(O)c(OC)c3)C2=O)ccc1O`, the GI50 in [1] is 17.2 µM (inactive).
Still for that read-out and setting: the figure for `NNC(=O)CS(=O)(=O)Nc1ncccn1` is > 100 µM (inactive); for `CCC(=O)OCc1ccc2oc(=O)c(C(=O)Oc3cncc(Cl)c3)cc2c1` it is > 100 µM (inactive).
For the compound `Cc1ccc(N/N=C2\C3=C(CCC(C)(C)O3)C(=O)c3ccccc32)cc1`, the GI50 in assay [1] is 26.1 µM (inactive).
In the case of `Cc1nc(Nc2ccccc2)sc1C(=O)CC(=O)C(=O)Nc1c(C(C)C)cccc1C(C)C`, the GI50 in assay [2] is > 100 µM (inactive); in [3], > 100 µM (inactive); in [4], 85.1 µM (inactive); in [5], 60 µM (inactive); in [6], > 100 µM (inactive); in assay [8] it was > 100 µM (inactive). Besides, the GI50 in assay [9] was > 100 µM (inactive).
Take `CCCC(=O)N[C@H]1CCc2cc(OC)c(OC)c(OC)c2-c2ccc(SC)c(=O)cc21`: the GI50 in [1] is < 0.01 µM (active); in assay [2], < 0.01 µM (active); in assay [3], > 35.8 µM (inactive); in assay [4] it was < 0.01 µM (active); in assay [5] it was < 0.01 µM (active); in assay [6], < 0.01 µM (active). Further, the GI50 in assay [7] and in assay [8] was < 0.01 µM (active) in each case.
Turning to `O=C(OCCC12CC3CC(CC(C3)C1)C2)c1ccc(NCc2cc(O)ccc2O)cc1`, in assay [1], the GI50 was 0.241 µM (active).
Regarding `S=C(NCc1ccccc1)N/N=C/c1ccccn1`, the GI50 in assay [1] is 8.02 µM (inactive).
Still for that read-out and setting: the result for `C[C@]12CC[C@H]3[C@@H](CC=C4C[C@@H](N5CCCC5)CC[C@@]43C)[C@@H]1C/C(=C\c1ccc([N+](=O)[O-])cc1)[C@@H]2O` reads 13.5 µM (inactive); that for `COC(=O)[C@H](C)N1C(=O)N[C@@H](C(C)C)C1=O`, > 100 µM (inactive); that for `COc1ccc(C(=O)C(CC2C(=O)CC(C)(C)C(C(=O)C(=O)Nc3c(C)cccc3C)C2=O)c2ccc(OC)cc2)cc1` (centres undefined), > 100 µM (inactive).
Still for that read-out and setting: the result for `CN(C)CCn1nc(N)c2nc3cc(C(F)(F)F)ccc3nc21` reads 99.8 µM (inactive).
The same measure, in the same setting: the result for `Cc1cc2[nH]c3c(C#N)c(-c4ccccc4)c(/C=N/c4ccc(F)cc4)c(=O)n3c2cc1C` reads > 100 µM (inactive).
For `O=C1NC(=O)C(c2c[nH]c3cc(Br)ccc23)=C1c1cnc[nH]1`, the GI50 in assay [1] is 13.5 µM (inactive).
Same read-out and setting: the result for `Oc1c(CN2CCN(c3ccccc3)CC2)cc(Br)c2cccnc12` reads 7.52 µM (inactive); that for `Clc1ccccc1C(Nc1cnccn1)Nc1cnccn1`, > 100 µM (inactive).
Take `CC(=O)OC1C=CC2CCN3C(=O)c4cc5c(cc4[C@H]1C23)OCO5` (some centres undefined): the GI50 in assay [2], in assay [4], in assay [5], in assay [6] and in [8] was > 100 µM (inactive) each time.
In the case of `COC(=O)/C=C1\C(=O)Nc2ccc(Br)cc21`, the GI50 in assay [1] is 1.69 µM (inactive).
On the same count and under the same terms, the figure for `COC(=O)/C=C1/N=C(N(C)/N=C/c2ccccc2)NC1=O` is > 100 µM (inactive).
Still for that read-out and setting: the result for `Clc1ccc(/C=C/c2nc(-c3ccccc3)cn3c2nc2ccccc23)cc1Cl` reads 61.7 µM (inactive).
